The Ki is a dissociation constant, usually derived from enzyme kinetics or from competition with a known ligand.

Among the data in ChEMBL document CHEMBL1145789, “Benzoylalanine-derived ketoamides carrying vinylbenzyl amino residues: discovery of potent water-soluble calpain inhibitors with oral bioavailability” (J Med Chem, 2003) are Ki values, retold here.

In the test the target is T1, Calpain-1 catalytic subunit (Homo sapiens, UniProt P07384).
T1 sequence (P07384 whole entry): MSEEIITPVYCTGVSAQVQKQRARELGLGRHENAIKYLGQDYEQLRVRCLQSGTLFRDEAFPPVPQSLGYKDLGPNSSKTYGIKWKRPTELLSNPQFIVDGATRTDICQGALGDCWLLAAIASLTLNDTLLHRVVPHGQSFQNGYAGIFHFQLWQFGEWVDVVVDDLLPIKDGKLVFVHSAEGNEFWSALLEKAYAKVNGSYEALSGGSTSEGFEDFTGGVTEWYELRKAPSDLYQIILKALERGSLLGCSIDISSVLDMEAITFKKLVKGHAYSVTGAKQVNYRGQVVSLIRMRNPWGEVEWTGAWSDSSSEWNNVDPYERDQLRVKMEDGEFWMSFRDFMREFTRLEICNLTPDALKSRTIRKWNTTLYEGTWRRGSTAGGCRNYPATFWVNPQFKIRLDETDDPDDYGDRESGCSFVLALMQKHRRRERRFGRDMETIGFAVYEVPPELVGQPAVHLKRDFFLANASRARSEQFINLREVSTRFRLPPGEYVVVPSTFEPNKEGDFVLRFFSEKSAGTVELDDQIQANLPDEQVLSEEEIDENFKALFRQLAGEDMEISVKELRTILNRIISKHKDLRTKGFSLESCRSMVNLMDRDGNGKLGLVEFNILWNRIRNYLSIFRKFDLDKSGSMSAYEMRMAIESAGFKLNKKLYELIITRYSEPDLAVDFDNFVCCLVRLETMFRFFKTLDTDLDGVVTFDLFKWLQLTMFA
The test is described as follows: Inhibitory activity against human Calpain 1 isolated from erythrocytes. Type of test: cell-free.

As to `O=CC(Cc1ccccc1)NC(=O)c1ccccc1/C=C/c1cccc2ccccc12` (stereo unspecified), the Ki was found to be 15 nM.
